From patent US6355799B1, “Substituted benzene compounds, process for their preparation, and herbicidal and defoliant compositions containing them” (ISK Americas Incorporated, priority 1997, dated 2002)

Columns and labels:
Type in all cases: in vivo
[1] = tested on: redroot pigweed (Amaranthus retroflexus, AMARE); assay: Pre-emerge test, greenhouse herbicide activity screening; conditions: pre-emerge, 14 days after application, rating scale 0-100
Outline: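 Compounds in acetone were track-sprayed at 15-1000 g ai/ha (187 l/ha) on sandy loam pots: pre-emerge one day after seeding, post-emerge at 2-3 leaf stage with 0.25% v/v non-ionic surfactant. Phytotoxicity was rated 14 days later on a 0 (no damage) to 100 (complete death) scale.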

[2] = tested on: upland rice (Oryza sp., var. Tebonnet, RICE); assay: Post-emerge test, crop safety; conditions: post-emerge, 14 days after application, rating scale 0-100
Outline: (§1)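 Each test used a mechanized track sprayer delivering 187 l/ha of acetone solution at 15–1000 g ai/ha. Post-emerge foliage at 2–3 leaves was treated with added 0.25% v/v non-ionic surfactant and bottom-watered only. Injury was assessed on day 14, where 100 means total kill.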

[3] = tested on: field corn (Zea mays L., var. Dekalb 535, CORN); assay: Post-emerge test, crop safety; conditions: post-emerge, 14 days after application, rating scale 0-100
Outline: as §1

[4] = tested on: sicklepod (Cassia obtusifolia, CASOB); assay: Pre-emerge test, greenhouse herbicide activity screening; conditions: pre-emerge, 14 days after application, rating scale 0-100
Outline: (§2)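 Plants grown in 10 cm pots of sandy loam mix received acetone-dissolved compounds through a moving flat-fan nozzle. Doses ranged from 15 to 1000 g ai/ha. Pre-emerge pots were seeded one day earlier, post-emerge pots 8–21 days earlier. Fourteen days on, each pot was graded 0–100 for damage.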

[5] = tested on: green foxtail (Setaria viridis, SETVI); assay: as above; conditions: pre-emerge, 14 days after application, rating scale 0-100
Outline: as §2

[6] = tested on: johnsongrass (Sorghum halepense, SORHA); assay: as above; conditions: pre-emerge, 14 days after application, rating scale 0-100
Outline: as §2

[7] = tested on: barnyardgrass (Echinochloa crus-galli, ECHCG); assay: as above; conditions: pre-emerge, 14 days after application, rating scale 0-100
Outline: as §2

[8] = tested on: ivyleaf morningglory (Ipomoea hederacea, IPOHE); assay: as above; conditions: pre-emerge, 14 days after application, rating scale 0-100
Outline: as §2

[9] = tested on: lambsquarters (Chenopodium album, CHEAL); assay: as above; conditions: pre-emerge, 14 days after application, rating scale 0-100
Outline: as §2

[10] = tested on: large crabgrass (Digitaria sanguinalis, DIGSA); assay: as above; conditions: pre-emerge, 14 days after application, rating scale 0-100
Outline: as §2

[11] = tested on: velvetleaf (Abutilon theophrasti, ABUTH); assay: as above; conditions: pre-emerge, 14 days after application, rating scale 0-100
Outline: as §2

[12] = tested on: sicklepod (Cassia obtusifolia, CASOB); assay: Post-emerge test, greenhouse herbicide activity screening; conditions: post-emerge, 14 days after application, rating scale 0-100
Outline: (§3)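 Applied at 15–1000 g ai/ha from acetone in 187 l/ha spray volume. Post-emergence applications included 0.25% v/v non-ionic surfactant and reached plants sown 8–21 days before. Pre-emergence applications were incorporated by surface watering. Efficacy or crop damage was rated on a 0–100 scale after 14 days.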

[13] = tested on: green foxtail (Setaria viridis, SETVI); assay: as above; conditions: post-emerge, 14 days after application, rating scale 0-100
Outline: as §3

[14] = tested on: johnsongrass (Sorghum halepense, SORHA); assay: as above; conditions: post-emerge, 14 days after application, rating scale 0-100
Outline: as §3

[15] = tested on: barnyardgrass (Echinochloa crus-galli, ECHCG); assay: as above; conditions: post-emerge, 14 days after application, rating scale 0-100
Outline: as §3

[16] = tested on: ivyleaf morningglory (Ipomoea hederacea, IPOHE); assay: as above; conditions: post-emerge, 14 days after application, rating scale 0-100
Outline: as §3

[17] = tested on: lambsquarters (Chenopodium album, CHEAL); assay: as above; conditions: post-emerge, 14 days after application, rating scale 0-100
Outline: as §3

[18] = tested on: redroot pigweed (Amaranthus retroflexus, AMARE); assay: as above; conditions: post-emerge, 14 days after application
Outline: as §3

[19] = tested on: large crabgrass (Digitaria sanguinalis, DIGSA); assay: as above; conditions: post-emerge, 14 days after application, rating scale 0-100
Outline: as §3

[20] = tested on: velvetleaf (Abutilon theophrasti, ABUTH); assay: as above; conditions: post-emerge, 14 days after application, rating scale 0-100
Outline: as §3

[21] = tested on: upland rice (Oryza sp., var. Tebonnet, RICE); assay: Pre-emerge test, crop safety; conditions: pre-emerge, 14 days after application, rating scale 0-100
Outline: (§4)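 Fourteen days after spraying, crop and weed injury was graded visually from 0, no effect, to 100, every plant dead. Test substances were dissolved in acetone and applied at 15–1000 g ai/ha with a flat-fan nozzle. Application was either pre-emergence, one day after sowing, or post-emergence at the 2–3 leaf stage.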

[22] = tested on: field corn (Zea mays L., var. Dekalb 535, CORN); assay: Pre-emerge test, crop safety; conditions: pre-emerge, 14 days after application, rating scale 0-100
Outline: as §4

[23] = 63 g ai/ha, rating scale 0-100 (0 no damage, 100 complete death)
[24] = 250 g ai/ha, rating scale 0-100

## COc1c(Cl)cc(F)c(-n2c(=O)cc(C(F)(F)F)n(C)c2=O)c1NN=C(C)C [15-12]
[1]; 63 g ai/ha
  phytotoxicity rating AMARE: 100
[1]; 250 g ai/ha
  phytotoxicity rating AMARE: 100
[2]; 63 g ai/ha
  Post-emerge Herbicidal Activity RICE (crop damage rating): 80
[2]; 250 g ai/ha
  Post-emerge Herbicidal Activity RICE (crop damage rating): 99
[3]; 63 g ai/ha
  Post-emerge Herbicidal Activity CORN (crop damage rating): 80
[3]; 250 g ai/ha
  Post-emerge Herbicidal Activity CORN (crop damage rating): 95
[4]; 63 g ai/ha
  phytotoxicity rating CASOB: 100
[4]; 250 g ai/ha
  phytotoxicity rating CASOB: 100
[5]; 63 g ai/ha
  phytotoxicity rating SETVI: 100
[5]; 250 g ai/ha
  phytotoxicity rating SETVI: 100
[6]; 63 g ai/ha
  phytotoxicity rating SORHA: 100
[6]; 250 g ai/ha
  phytotoxicity rating SORHA: 100
[7]; 63 g ai/ha
  phytotoxicity rating ECHCG: 100
[7]; 250 g ai/ha
  phytotoxicity rating ECHCG: 100
[8]; 63 g ai/ha
  phytotoxicity rating IPOHE: 100
[8]; 250 g ai/ha
  phytotoxicity rating IPOHE: 100
[9]; 63 g ai/ha
  phytotoxicity rating CHEAL: 100
[9]; 250 g ai/ha
  phytotoxicity rating CHEAL: 100
[10]; 63 g ai/ha
  phytotoxicity rating DIGSA: 100
[10]; 250 g ai/ha
  phytotoxicity rating DIGSA: 100
[11]; 63 g ai/ha
  phytotoxicity rating ABUTH: 100
[11]; 250 g ai/ha
  phytotoxicity rating ABUTH: 100
[12]; 63 g ai/ha
  Post-emerge Herbicidal Activity CASOB (phytotoxicity rating): 90
[12]; 250 g ai/ha
  Post-emerge Herbicidal Activity CASOB (phytotoxicity rating): 100
[13]; 63 g ai/ha
  Post-emerge Herbicidal Activity SETVI (phytotoxicity rating): 70
[13]; 250 g ai/ha
  Post-emerge Herbicidal Activity SETVI (phytotoxicity rating): 100
[14]; 63 g ai/ha
  Post-emerge Herbicidal Activity SORHA (phytotoxicity rating): 80
[14]; 250 g ai/ha
  Post-emerge Herbicidal Activity SORHA (phytotoxicity rating): 99
[15]; 63 g ai/ha
  Post-emerge Herbicidal Activity ECHCG (phytotoxicity rating): 70
[15]; 250 g ai/ha
  Post-emerge Herbicidal Activity ECHCG (phytotoxicity rating): 100
[16]; 63 g ai/ha
  Post-emerge Herbicidal Activity IPOHE (phytotoxicity rating): 100
[16]; 250 g ai/ha
  Post-emerge Herbicidal Activity IPOHE (phytotoxicity rating): 100
[17]; 63 g ai/ha
  Post-emerge Herbicidal Activity CHEAL (phytotoxicity rating): 100
[17]; 250 g ai/ha
  Post-emerge Herbicidal Activity CHEAL (phytotoxicity rating): 100
[18]; [23]
  Post-emerge Herbicidal Activity AMARE (phytotoxicity rating): 95
[18]; [24]
  Post-emerge Herbicidal Activity AMARE (phytotoxicity rating): 100
[19]; 63 g ai/ha
  Post-emerge Herbicidal Activity DIGSA (phytotoxicity rating): 95
[19]; 250 g ai/ha
  Post-emerge Herbicidal Activity DIGSA (phytotoxicity rating): 100
[20]; 63 g ai/ha
  Post-emerge Herbicidal Activity ABUTH (phytotoxicity rating): 100
[20]; 250 g ai/ha
  Post-emerge Herbicidal Activity ABUTH (phytotoxicity rating): 100
[21]; 63 g ai/ha
  phytotoxicity rating RICE: 99
[21]; 250 g ai/ha
  phytotoxicity rating RICE: 100
[22]; 63 g ai/ha
  phytotoxicity rating CORN: 100
[22]; 250 g ai/ha
  phytotoxicity rating CORN: 100

## COCC(C)=NNc1c(OC)c(Cl)cc(F)c1-n1c(=O)cc(C(F)(F)F)n(C)c1=O [15-13]
[1]; 46 g ai/ha
  phytotoxicity rating AMARE: 100
[1]; 185 g ai/ha
  phytotoxicity rating AMARE: 100
[2]; 63 g ai/ha
  Post-emerge Herbicidal Activity RICE (crop damage rating): 60
[2]; 250 g ai/ha
  Post-emerge Herbicidal Activity RICE (crop damage rating): 90
[3]; 63 g ai/ha
  Post-emerge Herbicidal Activity CORN (crop damage rating): 15
[3]; 250 g ai/ha
  Post-emerge Herbicidal Activity CORN (crop damage rating): 50
[4]; 46 g ai/ha
  phytotoxicity rating CASOB: 100
[4]; 185 g ai/ha
  phytotoxicity rating CASOB: 100
[5]; 46 g ai/ha
  phytotoxicity rating SETVI: 100
[5]; 185 g ai/ha
  phytotoxicity rating SETVI: 100
[6]; 46 g ai/ha
  phytotoxicity rating SORHA: 99
[6]; 185 g ai/ha
  phytotoxicity rating SORHA: 100
[7]; 46 g ai/ha
  phytotoxicity rating ECHCG: 99
[7]; 185 g ai/ha
  phytotoxicity rating ECHCG: 100
[8]; 46 g ai/ha
  phytotoxicity rating IPOHE: 100
[8]; 185 g ai/ha
  phytotoxicity rating IPOHE: 100
[9]; 46 g ai/ha
  phytotoxicity rating CHEAL: 100
[9]; 185 g ai/ha
  phytotoxicity rating CHEAL: 100
[10]; 46 g ai/ha
  phytotoxicity rating DIGSA: 100
[10]; 185 g ai/ha
  phytotoxicity rating DIGSA: 100
[11]; 46 g ai/ha
  phytotoxicity rating ABUTH: 100
[11]; 185 g ai/ha
  phytotoxicity rating ABUTH: 100
[12]; 63 g ai/ha
  Post-emerge Herbicidal Activity CASOB (phytotoxicity rating): 60
[12]; 250 g ai/ha
  Post-emerge Herbicidal Activity CASOB (phytotoxicity rating): 100
[13]; 63 g ai/ha
  Post-emerge Herbicidal Activity SETVI (phytotoxicity rating): 20
[13]; 250 g ai/ha
  Post-emerge Herbicidal Activity SETVI (phytotoxicity rating): 60
[14]; 63 g ai/ha
  Post-emerge Herbicidal Activity SORHA (phytotoxicity rating): 10
[14]; 250 g ai/ha
  Post-emerge Herbicidal Activity SORHA (phytotoxicity rating): 70
[15]; 63 g ai/ha
  Post-emerge Herbicidal Activity ECHCG (phytotoxicity rating): 20
[15]; 250 g ai/ha
  Post-emerge Herbicidal Activity ECHCG (phytotoxicity rating): 85
[16]; 63 g ai/ha
  Post-emerge Herbicidal Activity IPOHE (phytotoxicity rating): 100
[16]; 250 g ai/ha
  Post-emerge Herbicidal Activity IPOHE (phytotoxicity rating): 100
[17]; 63 g ai/ha
  Post-emerge Herbicidal Activity CHEAL (phytotoxicity rating): 95
[17]; 250 g ai/ha
  Post-emerge Herbicidal Activity CHEAL (phytotoxicity rating): 100
[18]; [23]
  Post-emerge Herbicidal Activity AMARE (phytotoxicity rating): 80
[18]; [24]
  Post-emerge Herbicidal Activity AMARE (phytotoxicity rating): 95
[19]; 63 g ai/ha
  Post-emerge Herbicidal Activity DIGSA (phytotoxicity rating): 10
[19]; 250 g ai/ha
  Post-emerge Herbicidal Activity DIGSA (phytotoxicity rating): 70
[20]; 63 g ai/ha
  Post-emerge Herbicidal Activity ABUTH (phytotoxicity rating): 100
[20]; 250 g ai/ha
  Post-emerge Herbicidal Activity ABUTH (phytotoxicity rating): 100
[21]; 46 g ai/ha
  phytotoxicity rating RICE: 90
[21]; 185 g ai/ha
  phytotoxicity rating RICE: 100
[22]; 46 g ai/ha
  phytotoxicity rating CORN: 35
[22]; 185 g ai/ha
  phytotoxicity rating CORN: 100
